Data on one compound can be found in patent US10857146B2, “Method for preventing or treating tumor diseases with a combination of tyrosine kinase inhibitor and CDK4/6 inhibitor” (Jiangsu Hengrui Medicine Co., Ltd., priority 2018, dated 2020).

Molecules are shown by their SMILES.

Test [1] deals with advanced gastric cancer PDX tissue. As to the kind of experiment: Construction of HER2 inhibitor-resistant PDX model by prolonged administration. The class given is in vivo, mice. The text has this: (§1) A large-scale patient-derived tumor xenograft (PDX) model was constructed with a small amount of advanced gastric cancer tissue obtained by real-time endoscopic biopsy, thereby establishing a PDX tissue library. The PDX tissue was taken from the PDX tissue library, revived and inoculated subcutaneously into the mice. […] The tumor tissue was separated, and re-inoculated into new mice. […] C019 represents the mice one month after subcutaneous inoculation of the revived PDX tissue, S019 represents the mice two weeks after the administration of the compound of formula (I) at a single dose of 20 mg/kg, and R019 represents the mice three months after the administration of the compound of formula (I) in a single dose of 40 mg/kg.

Test [2] concerns R019 (HER2 inhibitor-resistant gastric cancer PDX model). As to the kind of experiment: Drug resistance test and combination administration in HER2 inhibitor-resistant gastric cancer PDX model (R019). Type of test: in vivo. The following applies: R019 mice, 40 mg/kg intragastrically once a day.
The subject of test [3] is C019 (HER2 inhibitor-sensitive gastric cancer PDX model). As to the kind of experiment: Drug resistance test in HER2 inhibitor-sensitive gastric cancer PDX model (C019). Type of test: in vivo. The following applies: C019 mice, 40 mg/kg intragastrically once a day.
Description: as §1
Protocol of the drug resistance test: the inhibitor group was administrated with the compound of formula (I) (intragastrically, once a day, in a single dose of 40 mg/kg), and the control group was administrated with an equal volume of normal saline. The tumor volume was measured every three days. The result of drug sensitivity of C019 and R019 models is shown in FIG. 1 (average value of five mice).

In the case of `CCOc1cc2ncc(C#N)c(Nc3ccc(OCc4ccccn4)c(Cl)c3)c2cc1NC(=O)/C=C/[C@H]1CCCN1C` [compound of formula (I)], the “tumor response after prolonged administration” value in test [1] (20 mg/kg intragastrically once a day for three months) is recorded as “resistance”; in test [1] (re-inoculated tumor, 40 mg/kg intragastrically once a day for three months) it was “complete resistance”. Moreover, the “drug sensitivity of the model” value in test [2] was “high resistance”; in test [3] it was “highly sensitive”. In addition, the tumor inhibition rate in test [3] (average value of five mice) is on record as > 100%.
